Experimental data published in patent US20220073521A1, “PYRIMIDINE AND FIVE-MEMBERED NITROGEN HETEROCYCLE DERIVATIVE, PREPARATION METHOD THEREFOR, AND MEDICAL USES THEREOF” (Tuojie Biotech (Shanghai) Co., Ltd., priority 2018, published 2022).
Read-outs that look alike come from different tables or passages of the source.

Key:
[1] = molecular target: T1, SHP2 wild-type phosphatase (recombinantly expressed full-length SHP2, aa 1-593) (Homo sapiens, UniProt Q06124); experiment: In vitro activity on SHP2 wild-type phosphatase (DiFMUP fluorescence); settings: wild-type full-length SHP2, activated polypeptide IRS1 0.5 nM, DiFMUP 30 μM;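 further: enzyme preincubated at room temperature, then DiFMUP reaction run at room temperature and halted with SDS, potency derived from a logistic curve fit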
T1 sequence (Q06124 1-593): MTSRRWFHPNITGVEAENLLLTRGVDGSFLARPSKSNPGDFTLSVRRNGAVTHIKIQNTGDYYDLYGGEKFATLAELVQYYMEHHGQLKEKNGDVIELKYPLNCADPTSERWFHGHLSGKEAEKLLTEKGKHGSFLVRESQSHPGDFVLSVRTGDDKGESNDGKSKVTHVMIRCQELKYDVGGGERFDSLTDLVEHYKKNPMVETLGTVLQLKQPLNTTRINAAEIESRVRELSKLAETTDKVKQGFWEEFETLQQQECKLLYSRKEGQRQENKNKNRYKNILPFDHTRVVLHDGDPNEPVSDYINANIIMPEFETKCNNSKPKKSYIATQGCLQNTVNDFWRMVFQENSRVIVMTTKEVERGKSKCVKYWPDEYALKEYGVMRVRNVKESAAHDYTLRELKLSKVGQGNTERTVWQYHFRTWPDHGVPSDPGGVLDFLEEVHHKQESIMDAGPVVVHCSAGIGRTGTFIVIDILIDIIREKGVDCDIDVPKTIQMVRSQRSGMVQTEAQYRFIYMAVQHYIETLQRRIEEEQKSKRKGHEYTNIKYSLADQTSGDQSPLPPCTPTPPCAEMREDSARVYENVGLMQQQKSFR
Experimental: 0.2 nM recombinantly expressed full-length SHP2 (aa 1-593), 0.5 nM activated polypeptide IRS1 with double phosphorylation sites (sequence: H2N-LN(pY)IDLDLY(dPEG8)LST(pY)ASINFQK-amide) and a series of concentrations of the test compound (final concentrations were 1 μM, 0.3 μM, 0.1 μM, 0.03 μM, 0.01 μM, 0.003 μM, 0.001 μM, 0.0003 μM, 0.0001 μM, 0.00003 μM) were added to the phosphatase reaction solution (60 mM HEPES, pH 7.5 0.005% Brij-35, 75 mM NaCl, 75 mM KCl, 1 mM EDTA, 5 mM DTT). The reaction solution was shaked (350 rpm) at room temperature for 30 minutes. The reaction substrate DiFMUP with a final concentration of 30 μM was added, and the reaction solution was reacted at room temperature for 30 minutes. The phosphatase reaction was stopped by adding 5 μL of stop solution (60 mM HEPES, pH 7.5, 0.2% SDS). Ex358 nm/Em455 fluorescence value was read on the fluorescence plate reader MD SpectraMax.
The IC50 value of the compound was calculated using the four-parameter logit method. In the following formula, x represents the logarithmic form of the compound concentration, and F(x) represents the effect value (the inhibition rate of cell proliferation under the given concentration condition): F(x)=((A−D)/(1+((x/C)^B)))+D. A, B, C and D are four parameters. Different concentrations correspond to different inhibition rates, based on which an inverse curve was plotted, and the IC50 of the inhibitor was calculated from the curve. The IC50 of the compound was calculated with Primer premier 6.0.

KYSE-520 cells = experiment: KYSE-520 cell proliferation experiment (CellTiter-Glo, 7 days); format: cell-based; settings: Homo sapiens
Experimental: The treated cell plate was incubated at 37° C., 5% CO2 for 7 days. CellTiter-Glo (Promega, G7573) was used to determine the number of viable cells in each well of the treated plate. 100 μL of the detection reagent was added to each well, and the plate was incubated at room temperature for 10 minutes. Then, the […] in each well was measured with Envision plate reader (PerkinElmer). […] The IC50 value was further calculated as the compound concentration required for 50% proliferation inhibition in the best-fit curve with […].

hERG potassium channel = molecular target: T2, hERG potassium channel (Homo sapiens, UniProt Q12809); experiment: hERG current inhibition experiment (manual patch clamp, CHO hERG cells); format: cell-based; settings: whole-cell patch clamp, tail current
T2 construct: host or cells: CHO hERG cells
T2 sequence (Q12809 whole entry): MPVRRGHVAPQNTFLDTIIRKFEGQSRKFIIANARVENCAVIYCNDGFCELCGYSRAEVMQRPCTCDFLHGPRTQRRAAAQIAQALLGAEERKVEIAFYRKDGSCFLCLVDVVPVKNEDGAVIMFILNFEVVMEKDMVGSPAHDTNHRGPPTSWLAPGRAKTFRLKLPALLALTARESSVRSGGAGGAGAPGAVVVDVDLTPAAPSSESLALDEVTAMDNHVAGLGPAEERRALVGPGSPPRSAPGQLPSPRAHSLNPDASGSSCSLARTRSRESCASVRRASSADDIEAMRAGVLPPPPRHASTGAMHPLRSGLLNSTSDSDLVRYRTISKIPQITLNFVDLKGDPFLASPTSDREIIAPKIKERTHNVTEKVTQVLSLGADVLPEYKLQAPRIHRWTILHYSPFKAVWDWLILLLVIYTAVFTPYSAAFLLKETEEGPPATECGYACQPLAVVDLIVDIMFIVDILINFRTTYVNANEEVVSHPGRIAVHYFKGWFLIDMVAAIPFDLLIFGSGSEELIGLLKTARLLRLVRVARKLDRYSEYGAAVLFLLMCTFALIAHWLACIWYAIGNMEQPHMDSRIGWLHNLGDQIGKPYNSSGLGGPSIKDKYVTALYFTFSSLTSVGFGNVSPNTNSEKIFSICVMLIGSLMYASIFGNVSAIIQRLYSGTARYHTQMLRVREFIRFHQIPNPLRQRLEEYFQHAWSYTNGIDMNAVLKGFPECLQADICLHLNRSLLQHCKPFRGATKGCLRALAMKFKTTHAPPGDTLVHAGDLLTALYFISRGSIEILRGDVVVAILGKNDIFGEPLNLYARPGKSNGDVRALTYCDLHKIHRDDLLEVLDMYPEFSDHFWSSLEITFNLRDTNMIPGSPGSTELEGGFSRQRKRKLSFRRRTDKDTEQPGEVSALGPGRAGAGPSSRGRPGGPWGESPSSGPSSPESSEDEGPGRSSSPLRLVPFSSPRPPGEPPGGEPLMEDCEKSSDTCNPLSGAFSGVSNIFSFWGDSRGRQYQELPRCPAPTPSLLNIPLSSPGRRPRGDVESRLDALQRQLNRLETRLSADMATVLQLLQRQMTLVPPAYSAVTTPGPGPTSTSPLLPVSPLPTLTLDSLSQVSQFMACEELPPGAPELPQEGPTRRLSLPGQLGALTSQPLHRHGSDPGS
Experimental: In this experiment, whole-cell current recording was performed using a manual patch clamp system (HEKA EPC-10 signal amplification and digital conversion system, purchased from HEKA Electronic, Germany). The round glass slide of which surface CHO hERG cells (provided by Sophion Bioscience Inc., Denmark, the cell generation number was P21) were grown on was placed in an electrophysiological recording slot under an inverted microscope. The recording slot was continuously perfused with extracellular fluid (approximately 1 mL per minute). Conventional whole-cell patch clamp current recording technique was used in the experiment. The experiments were performed at normal room temperature (˜25° C.). The cells were clamped at a voltage of −80 mV. Cell patch clamp voltage was depolarized to +20 mV to activate hERG potassium channel, and to −50 mV after 5 seconds to eliminate inactivation and generate tail currents. The tail current peak was used as a value of hERG current. When the hERG potassium current recorded in the above steps became steady under continuous perfusion of the extracellular fluid in the recording slot, the drug to be tested could be added to the perfusion, until the inhibition effect of the drug on hERG current reached a steady state. Generally, the overlapping of most recent three consecutive current recording lines was used as a criterion to determine whether the state was stable. After reaching the steady state, the recording slot was perfused with extracellular fluid until the hERG current returned to the value before the drug adding. The test data was analyzed by HEKA Patchmaster (V2x73.2), Microsoft Excel and the data analysis software provided by Graphpad Prism 5.0.

p-ERK in KYSE-520 cells = experiment: Determination of p-ERK in KYSE-520 cells (HTRF); format: cell-based; settings: Homo sapiens, KYSE-520, 2 h
Experimental: KYSE-520 cells (Nanjing Cobioer Biosciences CO., Ltd.) in the logarithmic growth phase were inoculated (30,000 cells/well) in 1640 medium containing 10% of FBS, and adhered in a 96-well plate overnight (5% CO2, 37° C.). […] The cell culture was stopped with cell lysate. The level of phosphorylated ERK in KYSE-520 cells was determined by a method based on homogeneous time-resolved fluorescence HTRF (Cisbio, 64ERKPEG). The fluorescence values (Ex337 nm/Em625/665 nm) were read on the compatible HTRF reader (MD SpectraMax).

[2] = Pharmacokinetics assay in rats; format: in vivo, SD rats; settings: rat; for AUC: read-out: Area under curve AUC; for half-life: read-out: Half-life T1/2 (converted)
Experimental: Rats were used as test animals. The drug concentration in plasma at different time points was determined by LC/MS/MS method after intravenous administration or intragastrical administration of the compound of the present invention to rats. The pharmacokinetic behavior of the compound of the present invention was studied and evaluated in rats.
The atropisomer with a RT of 1.495 minutes in Examples 3 and 4, compounds of Example 17, Example 41 and Example 43.
Healthy male SD rats (6-8 weeks old), 3 rats per group.
Intravenous administration: A certain amount of the test compound was weighed, to which 10% by volume of N,N-dimethylacetamide, 33% by volume of triethylene glycol and 57% by volume of water were added to prepare a 1 mg/mL colorless, clear and transparent solution;
Intragastrical administration: A certain amount of the test compound was weighed, to which 0.5% by mass of hypromellose, 0.1% by volume of Tween 80 and 99.4% by volume of water were added to prepare a 1 mg/mL white suspension.
After an overnight fast, the SD rats were intravenously administered the test compound at an administration dose of 1 mg/kg, or intragastrically administered the test compound at an administration dose of 5 mg/kg.
(§1) The rats were intravenously administered the compound of the present invention. 0.2 ml of blood was taken from the jugular vein at 0.083, 0.25, 0.5, 1, 2, 4, 8 and 24 hours after the administration. The samples were placed in tubes containing EDTA-K2, and centrifuged at 4000 rpm and 4° C. for 5 minutes to separate the blood plasma. The plasma samples were stored at −75° C.
as §1, with “Or, the rats” for “The rats”, “were intragastrically” for “were intravenously”, “at” for “at 0.083,”
The content of the test compound in the plasma of rat after intragastrical administration of the test compound at different concentrations was determined: 50 μL of rat plasma at each time after administration was taken, to which 200 μL of a solution (50 ng/mL) of internal standard dexamethasone in acetonitrile was added. The plasma was vortex-mixed for 30 seconds, and centrifuged at 4700 rpm and 4° C. for 15 minutes. The supernatant was taken from the plasma samples, and a three-fold dilution was carried out by adding water. 2.0 μL of the supernatant was used for LC/MS/MS analysis.

| SMILES | IC50 [1] [nM] | IC50 (KYSE-520 cells) [nM] | IC50 (hERG potassium channel) [nM] | IC50 (p-ERK in KYSE-520 cells) [nM] | AUC ([2]; male, SD, plasma, IV 1 mg/kg) [ng·h/mL] | clearance ([2]; male, SD, plasma, IV 1 mg/kg, read-out: Clearance CL_obs) [mL/min/kg] | half-life ([2]; male, SD, plasma, IV 1 mg/kg) [h] | bioavailability ([2]; male, SD, plasma, PO 5 mg/kg vs IV 1 mg/kg, read-out: Bioavailability F) [%] | AUC ([2]; male, SD, plasma, PO 5 mg/kg) [ng·h/mL] | half-life ([2]; male, SD, plasma, PO 5 mg/kg) [h] | Cmax ([2]; male, SD, plasma, PO 5 mg/kg, read-out: Maximum plasma concentration Cmax) [ng/mL] | Apparent distribution volume Vss_obs ([2]; IV 1 mg/kg) [L/kg] |
| --- | --- | --- | --- | --- | --- | --- | --- | --- | --- | --- | --- | --- |
| Cc1nc(N2CCC3(CC2)CO[C@@H](C)[C@H]3N)n2cnnc2c1-c1cccc(Cl)c1Cl [Example 9, (3S,4S)-8-(8-(2,3-Dichlorophenyl)-7-methyl-[1,2,4]triazolo[4,3-c]pyrimidin-5-yl)-3-methyl-2-oxa-8-azaspiro[4.5]decan-4-amine] | 3.2 | 785 | 1910 | 285 | – | – | – | – | – | – | – | – |
| C[C@@H]1OCC2(CCN(c3ncc(Sc4cccnc4C(F)(F)F)c4nccn34)CC2)[C@@H]1N [Example 17, (3S,4S)-3-Methyl-8-(8-((2-(trifluoromethyl)pyridin-3-yl)thio)imidazo[1,2-c]pyrimidin-5-yl)-2-oxa-8-azaspiro[4.5]decan-4-amine] | 4.2 | 179 | 12300 | 32.3 | 764 ± 196 | 21.5 ± 5.2 | 2.83 ± 0.93 | 80.3 ± 8.5 | 3210 ± 351 | 3.42 ± 0.37 | 408 ± 77 | 3.8 ± 0.1 |
| C[C@@H]1OCC2(CCN(c3nc(N)c(Sc4cccnc4C(F)(F)F)c4nccn34)CC2)[C@@H]1N [Example 24, (3S,4S)-8-(7-Amino-8-((2-(trifluoromethyl)pyridin-3-yl)thio)imidazo[1,2-c]pyrimidin-5-yl)-3-methyl-2-oxa-8-azaspiro[4.5]decan-4-amine] | 4.4 | 75.9 | > 30000 | 11 | – | – | – | – | – | – | – | – |
| N[C@@H]1c2cccnc2CC12CCN(c1ncc(Sc3ccnc(NC4CC4)c3Cl)c3nccn13)CC2 [Example 36, (S)-1′-(8-((3-Chloro-2-(cyclopropylamino)pyridin-4-yl)thio)imidazo[1,2-c]pyrimidin-5-yl)-5,7-dihydrospiro[cyclopenta[b]pyridine-6,4′-piperidin]-5-amine] | 2.6 | 40.5 | 3970 | 8 | – | – | – | – | – | – | – | – |
| Cc1nc(N2CCC3(CC2)Cc2ncccc2[C@H]3N)n2ccnc2c1Sc1ccnc(N)c1Cl [Example 42, (S)-1′-(8-((2-Amino-3-chloropyridin-4-yl)thio)-7-methylimidazo[1,2-c]pyrimidin-5-yl)-5,7-dihydrospiro[cyclopenta[b]pyridine-6,4′-piperidin]-5-amine] | 1.9 | 65.1 | > 30000 | 20.2 | – | – | – | – | – | – | – | – |
